# What was measured:
# Format in all cases: in vivo
# C57BL/6J mice = experiment: Conditioned place preference induced by the drug itself; conditions: for Distance travelled in the drug-paired compartment / Distance travelled in the two compartments (Drug + Vehicle) / Distance travelled in the vehicle-paired compartment / Distance travelled, drug-paired minus vehicle-paired compartment / Time spent in the drug-paired compartment / Time spent in the vehicle-paired compartment / Time spent, drug-paired minus vehicle-paired compartment: vehicle before preference session, day 12, mean
# Excerpt: Conditioned place preference (CPP) is a widely used procedure for studying the potential addictive effect of drugs. CPP is based upon the tendency of rodents to approach a stimulus that has previously been paired with an incentive state induced by a drug. A drug that induces a CPP may be suspected to present reinforcing effects that could lead to addiction. Numerous addictive drugs, such as opiate agonists or stimulants induce a CPP and a behavioral sensitization.
# The effect of mazindol on place preference was examined in C57BL/6J mice using a method similar to the one used by Schlussman et al. (9).
# The second experiment consisted in determining the optimal dose of heroin which induces the most significant CPP. For this purpose, the CPP induced by heroin at 1.25, 2.5 and 5 mg/kg was examined.
# (§1) Following the habituation session (on day 1), animals (N=72) were pseudo-randomly assigned to two groups, a Control group (N=12) and a Heroin group (N=60), in a way that there was no significant difference between the two groups for the total distance travelled in the apparatus and for the percentage of time spent and the percentage distance travelled in the grey compartment and in the striped compartment.
# Animals received the following treatments immediately before drug sessions: • Control group: vehicle • Heroin group: heroin (1.25 mg/kg)
# as §1, with “three” for “two”, “(N=12),” for “(N=12) and”, “(N=48) and a Mazindol group (N=12),” for “(N=60),”
# Animals received the following treatments before drug sessions: • Control group: vehicle, i.p. immediately before session. • Heroin group: heroin (1.25 mg/kg), i.p. immediately before session. • MAZ 2 group: mazindol (2 mg/kg), i.p. 60 min before session.
# Animals received the following treatments before preference session: • Control group: vehicle of mazindol, i.p. 60 min before testing. • Hero group: vehicle of mazindol, i.p. 60 min before testing. • Hero-Mz 1 group: mazindol (1 mg/kg), i.p. 60 min before testing. • Hero-Mz 2 group: mazindol (2 mg/kg), i.p. 60 min before testing. • Hero-A 1 group: D-amphetamine (1 mg/kg), i.p. 30 min before testing. • MAZ 2 group: vehicle of mazindol, i.p. 60 min before testing.
# [1] = Heroin intoxication procedure after Jiang et al., mortality; conditions: two subcutaneous injections/day of heroin at increasing doses (3 to 30 mg/kg)
# Experimental: In the protocol planned before, it was planned to follow the method used by Jiang et al. Mice had to receive two subcutaneous injections/day of heroin at increasing doses (3 to 30 mg/kg) for 9 consecutive days and a single injection on the 10th day. […] It is likely that the discrepancy of toxicity between our experiments and the study of Jiang et al. partly resulted from difference in purity of heroin. Therefore, it was necessary to develop a method allowing to observe clear withdrawal symptoms and an acceptable mortality rate. This method is presented below. For information, 178 rats, including those used for the development of the method, have been used for this study of which 54 have been included in the results presented here.
# Sprague-Dawley rats = experiment: Naloxone precipitated withdrawal syndrome of heroin
# Experimental: The abrupt cessation of chronic opiate use results in a well characterized withdrawal syndrome with symptoms that include pain sensitivity, dysphoria, irritability, restlessness, insomnia, diarrhea and hyperventilation. In the present model, the naloxone-precipitated withdrawal syndrome is measured in rodents. Animals are chronically treated with a drug, e.g. morphine or heroin. Opiate withdrawal syndrome is elicited by an acute injection of the opiate antagonist Naloxone.
# The effect of mazindol on heroin withdrawal syndrome elicited by naloxone was examined in Sprague-Dawley rats using a method similar to the one used by Jiang et al. (10),
# Animals were subdivided into two groups. One group received heroin two i.p. injections/day for 12 consecutive days and a single injection on the 13th day (total: 25 injections) as exposed in Table 3 group received saline instead of heroin following the same protocol.
# On day 13, animals received treatments and were tested according to the following time schedule: • T=0: i.p. injection of heroin (15 mg/kg) or vehicle. • T=2.5 h: animals individually placed in a transparent Plexiglas observation boxes (40×40×40 cm). • T=3.5 h: i.p. injection of treatment (see below). • T=4 h: i.p. injection of naloxone (5 mg/kg), start of test: observation of withdrawal symptoms as indicated in Table 4. • T=5 h: end of test, animals placed back into their home cages.
# Animals received the following treatments at T 3.5 h (i.e. 30 min before injection of naloxone and observation of symptoms): • 1) Animals treated with saline during the intoxication period (days 1-12) and at T0 on day 13: • Saline group (N=8): saline (0.9% NaCl). • 2) Animals treated with […] during the intoxication period (days 1-12) and at T0 on day 13: • Hero group (N=14): saline (0.9% NaCl). • Amph 1 group (N=4): D-amphetamine (1 mg/kg). • Maz 0.125 group (N=5): mazindol (0.125 mg/kg). • Maz 0.25 group (N=6): mazindol (0.25 mg/kg). • Maz 0.5 group (N=6): mazindol (0.5 mg/kg). • Maz 1 group (N=6): mazindol (1 mg/kg). • Maz 2 group (N=5): mazindol (2 mg/kg).
# A weighting factor was ascribed for each sign from which a score was calculated.
# Examples: • Body weight before naloxone injection=241 g; after naloxone injection=236 g: • Weight loss score=2=100×(241−236)/241 • Number of escape attempts=8: • Score for escape attempts=2 • Profuse salivation present: • Score for profuse salivation
# A global withdrawal score was then calculated: • Global score=the sum of the scores
# [2] = Hero group N = 12 (Table 6): heroin 1.25 mg/kg i.p. before drug sessions
# [3] = Hero group N = 24 (Table 5): heroin 1.25 mg/kg i.p. before drug sessions
# [4] = Hero n = 14: heroin i.p. days 1-13 (2-15 mg/kg), saline 30 min before naloxone 5 mg/kg, mean
# [5] = heroin-treated vs. saline rats, naloxone 5 mg/kg
smiles,measurement,setting,value
CC(=O)Oc1ccc2c3c1O[C@H]1[C@@H](OC(C)=O)C=C[C@H]4[C@@H](C2)N(C)CC[C@@]341 [Heroin],Distance travelled in the drug-paired compartment,C57BL/6J mice; [2],7919.1 cm
same,Distance travelled in the two compartments (Drug + Vehicle),C57BL/6J mice; [2],13647.5 cm
same,Distance travelled in the vehicle-paired compartment,C57BL/6J mice; [2],5728.4 cm
same,"Distance travelled, drug-paired minus vehicle-paired compartment",C57BL/6J mice; [2],2190.6 cm
same,Time spent in the drug-paired compartment,C57BL/6J mice; [2],1063.0 s
same,Time spent in the vehicle-paired compartment,C57BL/6J mice; [2],737.0 s
same,"Time spent, drug-paired minus vehicle-paired compartment",C57BL/6J mice; [2],325.9 s
same,Distance travelled in the drug-paired compartment,C57BL/6J mice; [3],7943.6 cm
same,Distance travelled in the two compartments (Drug + Vehicle),C57BL/6J mice; [3],13892.0 cm
same,Distance travelled in the vehicle-paired compartment,C57BL/6J mice; [3],5948.4 cm
same,"Distance travelled, drug-paired minus vehicle-paired compartment",C57BL/6J mice; [3],1995.3 cm
same,Time spent in the drug-paired compartment,C57BL/6J mice; [3],1023.7 s
same,Time spent in the vehicle-paired compartment,C57BL/6J mice; [3],776.3 s
same,"Time spent, drug-paired minus vehicle-paired compartment",C57BL/6J mice; [3],247.4 s
same,place preference induced by the drug,C57BL/6J mice; heroin 1.25 mg/kg before drug sessions,induced a place preference
same,total distance travelled in two compartments (FIG. 3),"C57BL/6J mice; heroin 1.25 mg/kg before drug sessions, preference session",No significant modification
same,CPP induced by heroin (second experiment),"C57BL/6J mice; heroin 1.25, 2.5 and 5 mg/kg",induced CPP at the three doses tested
same,mortality,[1],substantial mortality
same,Abdominal constrictions score (Abd C),Sprague-Dawley rats; [4],4.1
same,Abnormal posture score (Ab P),Sprague-Dawley rats; [4],0.2
same,Chromodacryorrhea score (Chr),Sprague-Dawley rats; [4],1.1
same,Diarrhea score (Diarr),Sprague-Dawley rats; [4],2.0
same,Erection or ejaculation score (Er Ej),Sprague-Dawley rats; [4],0.0
same,Escape attempts score (Esc A),Sprague-Dawley rats; [4],1.1
same,Facial fasciculation or teeth chattering score (F F T C),Sprague-Dawley rats; [4],2.0
same,Global Score,Sprague-Dawley rats; [4],22.4
same,Irritability score (Irrit),Sprague-Dawley rats; [4],0.0
same,Profuse salivation score (Pr Sal),Sprague-Dawley rats; [4],5.5
same,Ptosis score (Ptos),Sprague-Dawley rats; [4],0.1
same,Swallowing movements score (Sw M),Sprague-Dawley rats; [4],0.9
same,Weight loss score (W Los),Sprague-Dawley rats; [4],1.9
same,Wet dog shakes score (W D S),Sprague-Dawley rats; [4],3.4
same,"global score and scores for weight loss, escape attempts, wet dog shake, diarrhea, facial fasciculation or teeth chattering and profuse salivation",Sprague-Dawley rats; [5],induced an increase
same,scores for abdominal constrictions and chromodacryorrhea,Sprague-Dawley rats; [5],non-significantly increased

# From patent publication US11596622B2, “Mazindol treatment for heroin dependence and substance use disorder” (NLS Pharmaceutics AG, priority 2017, dated 2023)
